# Results from ChEMBL document CHEMBL4028803, “Design, synthesis, and structure-activity relationship studies of benzothiazole derivatives as antifungal agents” (Eur J Med Chem, 2016).
# Tests used:
# Candida albicans [1] = test: Antifungal activity against Candida albicans ATCC SC5314 by broth microdilution assay; type: functional
# Candida tropicalis = test: Antifungal activity against Candida tropicalis cgmcc 2.3739 by broth microdilution assay; type: functional
# Aspergillus fumigatus = test: Antifungal activity against Aspergillus fumigatus cgmcc 3.7795 by broth microdilution assay; type: functional
# Cryptococcus neoformans [2] = test: Antifungal activity against Cryptococcus neoformans cgmcc 2.3161 by broth microdilution assay; type: functional
# Candida albicans [3] = test: Antifungal activity against Candida albicans CPCC 400523 by broth microdilution assay; type: functional
# [4] = target: T1, Lanosterol 14-alpha demethylase (Candida albicans (strain SC5314 / ATCC MYA-2876) (Yeast), UniProt P10613); test: Inhibition of CYP51 in Candida albicans ATCC SC5314 assessed as lanosterol composition of the total sterol fraction in membrane at 8 ug/ml after 16 hrs by GC-MS analysis (reference value: 2.9%); parameters: scale not given: the % may be the effect or the level left; conditions: candida albicans sc5314, 16 h
# T1 sequence (P10613 whole entry): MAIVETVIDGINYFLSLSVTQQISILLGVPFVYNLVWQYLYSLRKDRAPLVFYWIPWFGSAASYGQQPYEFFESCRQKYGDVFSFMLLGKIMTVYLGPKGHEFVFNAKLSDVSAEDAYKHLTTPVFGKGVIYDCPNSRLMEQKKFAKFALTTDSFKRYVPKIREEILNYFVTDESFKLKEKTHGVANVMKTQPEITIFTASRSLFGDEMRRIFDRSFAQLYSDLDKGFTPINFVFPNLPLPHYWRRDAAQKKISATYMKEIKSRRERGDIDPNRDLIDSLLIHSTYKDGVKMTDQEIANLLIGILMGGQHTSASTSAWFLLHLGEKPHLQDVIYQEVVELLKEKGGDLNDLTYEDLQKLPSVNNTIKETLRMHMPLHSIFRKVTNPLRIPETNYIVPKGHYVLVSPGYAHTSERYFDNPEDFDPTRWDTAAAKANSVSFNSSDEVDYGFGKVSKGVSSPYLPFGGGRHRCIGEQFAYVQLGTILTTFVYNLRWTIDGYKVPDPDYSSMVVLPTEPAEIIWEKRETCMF
# Candida albicans [5] = test: Antifungal activity against fluconazole-resistant Candida albicans 100 by broth microdilution assay; type: functional
# [6] = target: T1, Lanosterol 14-alpha demethylase; test: Inhibition of CYP51 in Candida albicans ATCC SC5314 assessed as sterol composition in membrane at 8 ug/ml after 16 hrs by GC-MS analysis (reference value: 7.5%); parameters: scale not given: the % may be the effect or the level left; conditions: candida albicans sc5314, 16 h
# [7] = target: T1, Lanosterol 14-alpha demethylase; test: Inhibition of CYP51 in Candida albicans ATCC SC5314 assessed as eburicol composition of the total sterol fraction in membrane at 8 ug/ml after 16 hrs by GC-MS analysis relative to control; parameters: scale not given: the % may be the effect or the level left; conditions: candida albicans sc5314, 16 h
# [8] = target: T1, Lanosterol 14-alpha demethylase; test: Inhibition of CYP51 in Candida albicans ATCC SC5314 assessed as ergosterol composition of the total sterol fraction in membrane at 8 ug/ml after 16 hrs by GC-MS analysis (reference value: 89.6%); parameters: scale not given: the % may be the effect or the level left; conditions: candida albicans sc5314, 16 h
# Candida albicans [9] = test: Antifungal activity against fluconazole-resistant Candida albicans 103 by broth microdilution assay; type: functional
# [10] = target: T1, Lanosterol 14-alpha demethylase; test: Inhibition of CYP51 in Candida albicans ATCC SC5314 assessed as obtusifoliol composition of the total sterol fraction in membrane at 8 ug/ml after 16 hrs by GC-MS analysis relative to control; parameters: scale not given: the % may be the effect or the level left; conditions: candida albicans sc5314, 16 h
# Candida albicans [11] = test: Antifungal activity against Candida albicans by NCCLS method; type: functional
# Cryptococcus neoformans [12] = test: Antifungal activity against Cryptococcus neoformans by NCCLS method; type: functional
Structure (SMILES),MIC (Candida albicans [1]) [µg/mL],MIC (Candida tropicalis) [µg/mL],MIC (Aspergillus fumigatus) [µg/mL],MIC (Cryptococcus neoformans [2]) [µg/mL],MIC (Candida albicans [3]) [µg/mL],Activity [4] [%],MIC (Candida albicans [5]) [µg/mL],Activity [6] [%],Activity [7] [%],Activity [8] [%],MIC (Candida albicans [9]) [µg/mL],Activity [10] [%],MIC (Candida albicans [11]) [µg/mL],MIC (Cryptococcus neoformans [12]) [µg/mL]
CCNC(=O)[C@H](Cn1ccnc1)NC(=O)c1nc2ccc(Br)cc2s1,> 64,> 64,> 64,> 64,> 64,–,–,–,–,–,–,–,–,–
Cc1ccc2nc(C(=O)N[C@@H](Cn3ccnc3)C(=O)OC(C)C)sc2c1,0.5,1,> 64,2,4,–,–,–,–,–,–,–,–,–
Cc1ccc2nc(C(=O)N[C@@H](Cn3ccnc3)C(=O)OCC(C)C)sc2c1,0.25,0.5,> 64,0.5,2,–,–,–,–,–,–,–,–,–
CC(C)COC(=O)[C@@H](Cn1ccnc1)NC(=O)c1nc2ccc(Br)cc2s1,0.125,0.125,> 64,0.5,0.25,–,–,–,–,–,–,–,–,–
CCOC(=O)[C@H](Cn1ccnc1)NC(=O)c1nc2ccc(C)cc2s1,2,4,> 64,8,> 64,–,–,–,–,–,–,–,–,–
CC(C)COC(=O)[C@H](Cn1ccnc1)NC(=O)c1nc2ccc(F)cc2s1,0.5,8,> 64,4,16,–,–,–,–,–,–,–,–,–
CCCOC(=O)[C@H](Cn1ccnc1)NC(=O)c1nc2ccc(C)cc2s1,0.5,0.5,> 64,2,4,–,–,–,–,–,–,–,–,–
CC(C)COC(=O)[C@H](Cn1ccnc1)NC(=O)c1nc2c(C(F)(F)F)cccc2s1,> 64,> 64,> 64,> 64,> 64,–,–,–,–,–,–,–,–,–
CC(C)COC(=O)[C@H](Cn1ccnc1)NC(=O)c1nc2ccc(Cl)cc2s1,0.125,0.25,> 64,1,2,–,–,–,–,–,–,–,–,–
Cc1cccc2sc(C(=O)N[C@@H](Cn3ccnc3)C(=O)OCC(C)C)nc12,> 64,> 64,> 64,> 64,> 64,–,–,–,–,–,–,–,–,–
CCCOC(=O)[C@H](Cn1ccnc1)NC(=O)c1nc2ccc(Cl)cc2s1,0.5,1,> 64,2,2,–,–,–,–,–,–,–,–,–
CC(C)OC(=O)[C@H](Cn1ccnc1)NC(=O)c1nc2ccc(F)cc2s1,4,16,> 64,> 64,16,–,–,–,–,–,–,–,–,–
CC(C)COC(=O)[C@H](Cn1ccnc1)NC(=O)c1nc2ccc(Br)cc2s1,0.125,0.25,> 64,0.5,0.25,18.8,16,8.6,63.4,2.7,8,6.4,–,–
COC(=O)[C@H](Cn1ccnc1)NC(=O)c1nc2ccc(C)cc2s1,8,16,> 64,8,> 64,–,–,–,–,–,–,–,–,–
COC(=O)[C@H](Cn1ccnc1)NC(=O)c1nc2ccccc2s1,–,–,–,–,–,–,–,–,–,–,–,–,8,2
COC(=O)[C@H](Cn1ccnc1)NC(=O)c1nc2ccc(Cl)cc2s1,8,8,> 64,32,16,–,–,–,–,–,–,–,–,–
COc1ccc2nc(C(=O)N[C@@H](Cn3ccnc3)C(=O)OC(C)C)sc2c1,2,2,> 64,32,4,–,–,–,–,–,–,–,–,–
CNC(=O)[C@H](Cn1ccnc1)NC(=O)c1nc2ccc(Br)cc2s1,> 64,> 64,> 64,> 64,> 64,–,–,–,–,–,–,–,–,–
CC(C)OC(=O)[C@H](Cn1ccnc1)NC(=O)c1nc2ccc(Br)cc2s1,0.125,0.5,> 64,2,0.5,–,32,–,–,–,16,–,–,–
CC(C)OC(=O)[C@@H](Cn1ccnc1)NC(=O)c1nc2ccc(Br)cc2s1,0.125,1,> 64,2,0.5,–,–,–,–,–,–,–,–,–
CC(C)OC(=O)[C@H](Cn1ccnc1)NC(=O)c1nc2ccc(Cl)cc2s1,0.25,1,> 64,2,2,–,–,–,–,–,–,–,–,–
CC(C)COC(=O)[C@H](Cn1ccnc1)NC(=O)c1nc2c(Cl)cccc2s1,> 64,> 64,> 64,> 64,> 64,–,–,–,–,–,–,–,–,–
CCOC(=O)[C@H](Cn1ccnc1)NC(=O)c1nc2ccc(Cl)cc2s1,0.5,2,> 64,8,4,–,–,–,–,–,–,–,–,–
CC(C)COC(=O)[C@H](Cn1ccnc1)NC(=O)c1nc2ccc(C(F)(F)F)cc2s1,0.125,0.5,> 64,0.5,2,–,32,–,–,–,32,–,–,–
COc1ccc2nc(C(=O)N[C@@H](Cn3ccnc3)C(=O)OCC(C)C)sc2c1,2,1,> 64,8,4,–,–,–,–,–,–,–,–,–
CC(C)OC(=O)[C@H](Cn1ccnc1)NC(=O)c1nc2ccc(C(F)(F)F)cc2s1,0.125,1,> 64,2,2,–,–,–,–,–,–,–,–,–
OC(Cn1cncn1)(Cn1cncn1)c1ccc(F)cc1F [FLUCONAZOLE],0.5,1,> 64,4,1,18.3,> 64,4.8,67.9,2.1,> 64,6.9,–,–
CCC(C)n1ncn(-c2ccc(N3CCN(c4ccc(OCC5COC(Cn6cncn6)(c6ccc(Cl)cc6Cl)O5)cc4)CC3)cc2)c1=O (stereo not given) [ITRACONAZOLE],0.125,0.5,4,1,0.5,–,–,–,–,–,–,–,–,–
